Measured values as given in ChEMBL document CHEMBL1201862, “PubChem BioAssay data set” (2004).
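Method: 48-hour compound exposure of cells in 96-well plates, five concentrations, linear interpolation of endpoints. GI50 is the concentration that inhibits growth by half.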 The source made the active and inactive calls. No stated cut-off is given here; in the data, active = GI50 up to about 1.1 µM and inactive = higher.

Columns and labels:
Assay in all cases: inhibition of tumour cell growth, NCI panel, 48 h
[1] = tested on: SK-OV-3
[2] = tested on: SK-MEL-5
[3] = tested on: CCRF-CEM
[4] = tested on: HCT-15
[5] = tested on: NCI-H23
[6] = tested on: 786-0
[7] = tested on: Malme-3M
[8] = tested on: LOX IMVI
[9] = tested on: U-251
[10] = tested on: UACC-62
[11] = tested on: OVCAR-3
[12] = tested on: RXF 393
[13] = tested on: RPMI-8226
[14] = tested on: TK-10
[15] = tested on: NCI-H226
[16] = tested on: SF-268

In the case of CC(C)(C)c1cc(C2c3cc4c(cc3OC(O)(CO)C2C(=O)O)OCO4)cc(C(C)(C)C)c1O.CC(C)(C)c1cc(C2c3cc4c(cc3OC3(O)COC(=O)C23)OCO4)cc(C(C)(C)C)c1O (stereo not drawn), the GI50 [1] is reported as 27.3 µM (inactive), the GI50 [2] is reported as 9.48 µM (inactive) and the GI50 [3] is reported as 3.58 µM (inactive). For the same molecule, the GI50 [4] was 8.2 µM, the GI50 [5] was 9.55 µM (inactive) and the GI50 [6] was 16.6 µM (inactive). For the same molecule, the GI50 [7] was 16.6 µM (inactive), the GI50 [8] was 12.2 µM (inactive) and the GI50 [9] was 14.5 µM (inactive). For the same molecule, the GI50 [10] was 5 µM (inactive), the GI50 [11] was 5.36 µM (inactive) and the GI50 [12] was 11.9 µM (inactive). The GI50 [13] was 4.37 µM (inactive) and the GI50 [14] was 22.7 µM (inactive).

With O=[N+]([O-])c1ccc(/C(Cl)=C/c2ccc(/C=C(\Cl)c3ccc([N+](=O)[O-])cc3[N+](=O)[O-])cc2)c([N+](=O)[O-])c1 the GI50 [1] was > 100 µM (inactive), the GI50 [15] was > 100 µM (inactive) and the GI50 [2] was > 100 µM (inactive). The GI50 [4] was greater than 100 µM, the GI50 [5] was > 100 µM (inactive) and the GI50 [16] was > 100 µM (inactive). For the same molecule, the GI50 [6] was > 100 µM (inactive), the GI50 [7] was > 100 µM (inactive) and the GI50 [8] was > 100 µM (inactive). For the same molecule, the GI50 [9] was > 100 µM (inactive), the GI50 [10] was > 100 µM (inactive) and the GI50 [11] was 0.729 µM (active). For the same molecule, the GI50 [12] was > 100 µM (inactive), the GI50 [13] was > 100 µM (inactive) and the GI50 [14] was > 100 µM (inactive).

With COc1cc(Nc2nc3cc(C(F)(F)F)ccc3nc2C)cc(OC)c1OC the GI50 [1] was 14.4 µM (inactive), the GI50 [15] was 5.14 µM (inactive) and the GI50 [2] was 9.79 µM (inactive). The GI50 [3] was 5.74 µM (inactive), the GI50 [4] was 3.32 µM and the GI50 [5] was 10.7 µM (inactive). For the same molecule, the GI50 [16] was 16 µM (inactive), the GI50 [6] was 12.2 µM (inactive) and the GI50 [7] was 13.6 µM (inactive). For the same molecule, the GI50 [8] was 3.13 µM (inactive), the GI50 [9] was 9.95 µM (inactive) and the GI50 [10] was 3.94 µM (inactive). For the same molecule, the GI50 [11] was 16.1 µM (inactive), the GI50 [12] was 5.46 µM (inactive) and the GI50 [14] was 10.7 µM (inactive).

With COC(=O)C1=CC2C(=O)OC1CC2C#N (stereo not drawn) the GI50 [1] was > 100 µM (inactive), the GI50 [15] was > 100 µM (inactive) and the GI50 [2] was > 100 µM (inactive). For the same molecule, the GI50 [3] was > 100 µM (inactive), the GI50 [5] was > 100 µM (inactive) and the GI50 [16] was > 100 µM (inactive). For the same molecule, the GI50 [6] was > 100 µM (inactive), the GI50 [7] was > 100 µM (inactive) and the GI50 [8] was > 100 µM (inactive). The GI50 [9] was > 100 µM (inactive), the GI50 [10] was > 100 µM (inactive) and the GI50 [11] was > 100 µM (inactive). The GI50 [13] was > 100 µM (inactive) and the GI50 [14] was > 100 µM (inactive).

With CCN(CC)CC1CCCCN1CC(=O)N1CC(C)C(=O)Nc2ccccc21 (stereo not drawn) the GI50 [1] was > 100 µM (inactive), the GI50 [15] was > 100 µM (inactive) and the GI50 [2] was > 100 µM (inactive). For the same molecule, the GI50 [3] was > 100 µM (inactive), the GI50 [4] was greater than 100 µM and the GI50 [5] was > 100 µM (inactive). The GI50 [16] was > 100 µM (inactive), the GI50 [6] was > 100 µM (inactive) and the GI50 [7] was > 100 µM (inactive). The GI50 [8] was > 100 µM (inactive), the GI50 [9] was > 100 µM (inactive) and the GI50 [10] was > 100 µM (inactive). The GI50 [11] was > 100 µM (inactive) and the GI50 [13] was > 100 µM (inactive).

With COC(=O)c1c(C)cc2c(c1O)C1(O)C(=O)c3cc4c(c(O)c3C(=O)C1(OC)C(O)C2)C(=O)C=C(NC1OC(C)C(OC)C(O)C1OC)C4=O (stereo not drawn) the GI50 [1] was 0.298 µM (active), the GI50 [15] was 0.189 µM (active) and the GI50 [3] was 0.0189 µM (active). The GI50 [4] was 0.106 µM, the GI50 [5] was 0.0152 µM (active) and the GI50 [16] was 0.142 µM (active). The GI50 [6] was 0.0753 µM (active), the GI50 [7] was 0.0538 µM (active) and the GI50 [8] was 0.0342 µM (active). For the same molecule, the GI50 [9] was 0.207 µM (active), the GI50 [10] was 0.0139 µM (active) and the GI50 [11] was 0.11 µM (active). For the same molecule, the GI50 [12] was 0.0161 µM (active), the GI50 [13] was 0.0157 µM (active) and the GI50 [14] was 0.114 µM (active).

COc1cc(-c2ccccc2)c(OC)cc1CCl was tested, and the GI50 [1] was > 100 µM (inactive), the GI50 [15] was > 100 µM (inactive) and the GI50 [2] was > 100 µM (inactive). For the same molecule, the GI50 [3] was > 100 µM (inactive), the GI50 [4] was greater than 100 µM and the GI50 [5] was > 100 µM (inactive). The GI50 [16] was > 100 µM (inactive), the GI50 [6] was > 100 µM (inactive) and the GI50 [7] was > 100 µM (inactive). The GI50 [9] was > 100 µM (inactive), the GI50 [10] was > 100 µM (inactive) and the GI50 [11] was > 100 µM (inactive). For the same molecule, the GI50 [12] was > 100 µM (inactive), the GI50 [13] was > 100 µM (inactive) and the GI50 [14] was > 100 µM (inactive).

With COc1ccc(/C=C/C(=O)c2cc(C(=O)O)c(OC)cc2OC)cc1OC the GI50 [15] was > 100 µM (inactive), the GI50 [2] was > 100 µM (inactive) and the GI50 [3] was > 100 µM (inactive). The GI50 [4] was greater than 100 µM, the GI50 [5] was > 100 µM (inactive) and the GI50 [16] was > 100 µM (inactive). For the same molecule, the GI50 [6] was > 100 µM (inactive), the GI50 [8] was > 100 µM (inactive) and the GI50 [9] was > 100 µM (inactive). The GI50 [10] was > 100 µM (inactive) and the GI50 [13] was > 100 µM (inactive).

For OC(CC1SCCCS1)c1ccccc1 (stereo not drawn), the GI50 [1] was > 100 µM (inactive), the GI50 [15] was > 100 µM (inactive) and the GI50 [2] was > 100 µM (inactive). The GI50 [3] was > 100 µM (inactive), the GI50 [4] was greater than 100 µM and the GI50 [5] was > 100 µM (inactive). For the same molecule, the GI50 [16] was > 100 µM (inactive), the GI50 [6] was > 100 µM (inactive) and the GI50 [7] was > 100 µM (inactive). The GI50 [9] was > 100 µM (inactive), the GI50 [10] was > 100 µM (inactive) and the GI50 [11] was > 100 µM (inactive). The GI50 [12] was > 100 µM (inactive), the GI50 [13] was > 100 µM (inactive) and the GI50 [14] was > 100 µM (inactive).

For c1cncc(C2c3[nH]c4ccccc4c3CCN2CCCN2CCCCC2)c1 (stereo not drawn), the GI50 [1] was > 100 µM (inactive), the GI50 [15] was > 100 µM (inactive) and the GI50 [2] was 37.2 µM (inactive). For the same molecule, the GI50 [4] was greater than 100 µM, the GI50 [5] was > 100 µM (inactive) and the GI50 [6] was > 100 µM (inactive). The GI50 [7] was 29.7 µM (inactive), the GI50 [8] was > 100 µM (inactive) and the GI50 [9] was > 100 µM (inactive). For the same molecule, the GI50 [10] was 92.9 µM (inactive), the GI50 [11] was 51.1 µM (inactive) and the GI50 [12] was 53.6 µM (inactive). For the same molecule, the GI50 [13] was > 100 µM (inactive) and the GI50 [14] was > 100 µM (inactive).

O=[PH](O)c1cc2ccccc2c2ccccc12 was tested, and the GI50 [1] was > 100 µM (inactive), the GI50 [15] was > 100 µM (inactive) and the GI50 [2] was > 100 µM (inactive). For the same molecule, the GI50 [3] was > 100 µM (inactive), the GI50 [5] was > 100 µM (inactive) and the GI50 [16] was > 100 µM (inactive). For the same molecule, the GI50 [6] was > 100 µM (inactive), the GI50 [8] was > 100 µM (inactive) and the GI50 [9] was > 100 µM (inactive). For the same molecule, the GI50 [10] was > 100 µM (inactive), the GI50 [11] was > 100 µM (inactive) and the GI50 [12] was > 100 µM (inactive). For the same molecule, the GI50 [13] was > 100 µM (inactive) and the GI50 [14] was > 100 µM (inactive).

C=C1C2CC(OC(C)=O)C3(C)C(c4ccoc4)OC(=O)[C@@H](O)[C@]13OC1C[C@H](OC(C)=O)C(C)(C)[C@H](CC(=O)OC)[C@]12C (stereo partly drawn) was tested, and the GI50 [1] was > 100 µM (inactive), the GI50 [15] was > 100 µM (inactive) and the GI50 [2] was > 100 µM (inactive). For the same molecule, the GI50 [3] was > 100 µM (inactive), the GI50 [4] was greater than 100 µM and the GI50 [5] was > 100 µM (inactive). For the same molecule, the GI50 [6] was > 100 µM (inactive), the GI50 [8] was > 100 µM (inactive) and the GI50 [9] was > 100 µM (inactive). For the same molecule, the GI50 [10] was > 100 µM (inactive), the GI50 [11] was > 100 µM (inactive) and the GI50 [13] was > 100 µM (inactive). The GI50 [14] was > 100 µM (inactive).

With N#C/C(=C\c1ccc(O)c(O)c1)C(N)=O the GI50 [1] was 71.4 µM (inactive), the GI50 [15] was 37 µM (inactive) and the GI50 [3] was 5.78 µM (inactive). For the same molecule, the GI50 [4] was 50.6 µM, the GI50 [5] was 34 µM (inactive) and the GI50 [16] was 35 µM (inactive). For the same molecule, the GI50 [6] was 20.6 µM (inactive), the GI50 [7] was 50.6 µM (inactive) and the GI50 [9] was 33.9 µM (inactive). For the same molecule, the GI50 [10] was 52.7 µM (inactive), the GI50 [11] was 28.2 µM (inactive) and the GI50 [12] was 19.7 µM (inactive). For the same molecule, the GI50 [13] was 15.5 µM (inactive) and the GI50 [14] was 77.6 µM (inactive).

C#C[C@]1(O)CC[C@H]2[C@@H]3CCc4cc(O)ccc4[C@H]3CC[C@@]21C [ETHINYL ESTRADIOL] was tested, and the GI50 [1] was 24.4 µM (inactive), the GI50 [15] was 20.3 µM (inactive) and the GI50 [2] was 11.1 µM (inactive). The GI50 [3] was 23.1 µM (inactive), the GI50 [4] was 15.4 µM and the GI50 [5] was 23.7 µM (inactive). For the same molecule, the GI50 [16] was 44.1 µM (inactive), the GI50 [6] was 34.6 µM (inactive) and the GI50 [7] was 30.5 µM (inactive). The GI50 [8] was 25.2 µM (inactive), the GI50 [9] was 7.8 µM (inactive) and the GI50 [10] was 34.3 µM (inactive). The GI50 [11] was 28 µM (inactive), the GI50 [12] was 29 µM (inactive) and the GI50 [14] was 43.9 µM (inactive).
